Laboratory results: US5276217A, “Cyclic anti-tumor promoter compounds, compositions and methods for production and use” (University of Hawaii, priority 1992, dated 1994)
Read-outs that look alike come from different tables or passages of the source.

Experiments:
[1] = tested on: tumor promotion; settings: prior art, in words, cited from earlier work
[2] = biological target: T1, ras farnesyl transferase (Bos taurus, UniProt P29702+P49355); test: inhibition of the farnesylation of ras-p21 by ras farnesyl transferase (3H-farnesylpyrophosphate incorporation); format: biochemical, bovine
T1 construct: ras farnesyl transferase obtained from bovine brain; from tissue; host or cells: bovine brain
Method: This inhibitory activity is assayed using partially purified ras farnesyl transferase obtained from bovine brain by DEA gel filtration (J. Biol. Chem., 260, 15575, 1991) purified to display a single band in gel electrophoresis. […] This mixture is incubated at 37° C. for 20 minutes. The solutes are then precipitated with trichloroacetic acid (TCA) and the precipitate is filtered on a glass filter. The amount of farnesyl incorporated into the ras-p21 is then determined by liquid scintillation.

Row | Structure (SMILES) | anti-tumor promoter activity [1] | anti-tumor promoter activity ([1]; listed as sarcophytol A) | IC50 ([2]; 37° C., 20 minutes, pH 7.5, 0.67 μM 3H-Farnesylpyrophosphate, 4 μg ras-p21) | inhibition of the farnesylation of ras-p21, in words ([2]; conclusion from Example 7)
1 | CC1=CC=C(C(C)C)C(O)CC(C)=CCCC(C)=CCC1 (stereo not shown) [Sarcophytol A] | have been shown to have anti-tumor promoter activity | displays antitumor promoting properties | > 1000 µM | does not appear to be an effective inhibitor
2 | C=C(C)C1CC=C(C)CC1 (stereo not shown) [Limonene, 1-methyl-4-(methylethenyl) cylcohexene] | has not been shown to have substantial anti-tumor promoter activity |  |  | 
3 | C/C1=C\C=C(\C(C)C)[C@@H](O)[C@H](O)/C(C)=C/CC/C(C)=C/CC1 [Sarcophytol B] | have been shown to have anti-tumor promoter activity |  |  | 
4 | CCCCC[C@H](O)CC(=O)CCc1ccc(O)c(OC)c1 [Gingerol, (S)-5-Hydroxy-1-(4-hydroxy-3-methoxyphenyl)-3-decanone] | reported to be an inhibitor of tumor promotion |  |  | 
